Test results taken from patent US6335038B1, “Composition for the prevention and/or treatment of osteoporosis and alterations due to menopause syndrome” (Sigma-Tau Healthscience S.p.A., priority 1998, dated 2002).

Columns and labels:
serum osteocalcin = assay: Evaluation of changes in serum osteocalcin concentration; type: in vivo, mice; details: for Osteocalcin, serum concentration: mice aged at least 7 months, daily with diet; for effect on serum osteocalcin concentrations (in words): mice, versus control animals
Experimental: There is a close correlation between changes in plasma levels of osteocalcin and bone tissue osteoblast activity, and a reduction in osteocalcin plasma levels is an indicator of […] osteoblast activity which appears to underlie osteoporosis in elderly subjects or in the postmenopausal period in women. These tests were performed on a batch of mice aged at least 7 months, divided into various groups of 10 mice each.
The treatment was administered daily for thirty days or sixty days consecutively.

[1] = tested on: MC3T3 osteoblast-like cells; assay: Osteoblastic cell growth tests; type: cell-based, mouse; details: 72-hour incubation; 0.05 mM carnitine, 0.005 mM isoflavones or genistein; versus controls
Experimental: In view of the important role played by osteoblasts in regulating growth and in bone remodelling, a series of tests was conducted to evaluate whether the presence of carnitines or isoflavonoids and genistein could influence the growth of osteoblastic cells in vitro.

[2] = Toxicological tests, single-dose administration, rats; details: single dose: carnitine mixture 600 mg/kg, propionyl L-carnitine 600 mg/kg, soy extract (5% isoflavones) 5 g/kg, genistein 15 mg/kg
[3] = tested on: prostacyclin synthesis in rat peritoneal macrophages; assay: Prostacyclin synthesis tests (PGI2 release by peritoneal macrophages from treated rats); type: in vivo; details: for effect on PGI2 synthesis in macrophages (in words): rats treated seven days, versus controls; for Macrophage PGI2 release values compared with controls: rats treated with diet for seven days (carnitine mixture 400 mg/kg, propionyl L-carnitine 400 mg/kg, soy extract 8 g/kg, genistein 40 mg/kg), carrageenin i.p. day 1, controls 0.25 ± 0.03
Experimental: The method used in these tests was the one described by G. R. Elliot in Brit. J. Nutrition, 64, 497, 1990, measuring the release of prostaglandins by peritoneal macrophages isolated from a batch of rats that were administered either the carnitine mixture, or the soy extract, or propionyl L-carnitine, or genistein, or various combinations of these products with their diet for seven days consecutively. The doses given were 400 mg/kg of carnitine mixture, or 400 mg/kg of propionyl L-carnitine, or 8 g/kg of soy extract, or 40 mg/kg of genistein, or the same doses of the various products combined. On day 1 of treatment, all the animals were treated intraperitoneally with 2 cm^3 of solution containing 2 mg of carrageenin. After the last day of treatment, peritoneal macrophages were isolated from the controls and treated rats so as to obtain a […] cell suspension.
One cm^3 of the macrophage preparation thus prepared was incubated for a period of two hours in order to evaluate the basal release or release after 30 minutes after being placed in contact with an ionophore such as […]. The cells were centrifuged and the supernatant analysed for its PGI2 content according to the radioimmunological assay method described by Zijstra et al. (Zijstra, F. J., Vincent, J. E., J. Chromatography, 311, 39, 1984).

[4] = Toxicological tests, single-dose administration, mice; details: single dose: carnitine mixture 600 mg/kg, propionyl L-carnitine 600 mg/kg, soy extract (5% isoflavones) 5 g/kg, genistein 15 mg/kg
[5] = duration of treatment 30 days, controls 120.4 ± 8.6
[6] = duration of treatment 60 days, controls 90.5 ± 7.9

Row | SMILES | Osteocalcin, serum concentration (serum osteocalcin; [5]) | Osteocalcin, serum concentration (serum osteocalcin; [6]) | effect on serum osteocalcin concentrations (in words) (serum osteocalcin) | effect on growth of osteoblastic cells (in words) [1] | mortality or evident signs of toxicity after single dose [2] | effect on PGI2 synthesis in macrophages (in words) [3] | Macrophage PGI2 release values compared with controls [3] | mortality or evident signs of toxicity after single dose [4]
1 | O=c1c(-c2ccc(O)cc2)coc2cc(O)cc(O)c12 [Genistein, 4′,5,7-trihydroxyisoflavone] | 135.9 ± 10.2 ng/mL | 100.1 ± 10.2 ng/mL | capable of increasing the serum osteocalcin concentrations | neither the isoflavones nor genistein appear to influence the normal growth rate of the cells | without any mortality or evident signs of toxicity | only modest | 0.39 ± 0.27 ng/2 × 10^−6 cells | without any mortality or evident signs of toxicity
2 | CCC(=O)O[C@H](CC(=O)[O-])C[N+](C)(C)C [Propionyl L-carnitine, propionyl L-carnitine] | 130.7 ± 10.1 ng/mL | 98.5 ± 8.1 ng/mL | capable of increasing the serum osteocalcin concentrations | modest effect on the growth of cells | without any mortality or evident signs of toxicity | increase in PGI2 synthesis | 3.0 ± 0.22 ng/2 × 10^−6 cells | without any mortality or evident signs of toxicity
